Experiments:
[1] = test system: wound-induced SD rats; assay: Wound area in full-thickness excision wound-induced animal model; assay type: in vivo, Sprague-Dawley (SD) rats; conditions: 50 μL of 100 μg/mL applied every two days
Description: To confirm wound healing effects of the novel peptides Pep-WH-8, Pep-WH-9, Pep-WH-11, and Pep-WH-1, a wound-induced animal model was treated with each of the novel peptides, and then an experiment to confirm an effect of each peptide in producing collagen needed for a decrease in wound size and in a wound healing process was carried out as follows.
Sprague-Dawley (SD) rats were selected because mice have thin skins and it is difficult to uniformly induce a wound in mice. To exclude effects due to hormonal changes, male SD rats were selected and 6-week-old SD rats were purchased and acclimated for about 1 week. However, to more precisely obtain experimental results, an experiment was carried out after the 6-week-old SD rats became 11 weeks old. Since experimental animals are sensitive to olfactory responses and may attack other individual, individuals were separated from each other after wounds were formed, such as 1 rat for each cage, and observed.
The following method was used to form full-thickness excision in the prepared experimental animals. To induce anesthesia, a mixture of 10 mg/kg (body weight) of xylazine-HCl and 100 mg/kg (body weight) of ketamine HCl were intraperitoneally injected into the experimental animals or the experimental animals were administered the mixture via a respiratory anesthesia system. After the induction of anesthesia, hairs on the back of the experimental animal in a prone position were shaved cleanly, the back was disinfected with betadine, and then one circular full-thickness excision was made on a site apart from the highest portion of the back to each of left and right sides by a distance of about 1 cm, using a 16 mm punch. Separate dressing was not performed on the wound sites.
The full-thickness excision-induced animal model was divided into the following groups and a drug was applied on each group immediately after the formation of the excision and every two days. For the application method, a material was adjusted to a concentration of 1 mg/mL, and then, immediately before the experiment, the material was diluted 10 times to a concentration of 100 μg/mL. 50 μL of the material was applied dropwise on each excision.
[…] When the wounds were completely healed, the wound healing date was recorded. Generally, on about day 9, individuals with the wound sizes decreased to 5% of the initial wounds began to appear. The wound sites were photographed with a ruler, and then the acquired images were analyzed using the Image J program (NIH, USA) to calculate wound areas, and the wound areas were compared with each other.

[2] = test system: TNF-α; assay: ELISA of TNF-α amounts in LPS-induced THP-1 cells; assay type: cell-based, human; conditions: all the concentrations (1 μM, 5 μM, 10 μM); FIG. 2
Description: (§1) An experiment was carried out using THP-1 cells (American Type Culture Collection (ATCC), Manassas, Va., USA), which is a human acute monocytic leukemia cell line. THP-1 cells were suspended in RPMI 1640 medium to a concentration of 1×10^5 cells per well in a 96 well plate and incubated for 24 hours. At this time, the THP-1 cells were treated with phorbol 12-myristate 13-acetate (PMA) (Sigma) to differentiate into macrophages.
The ELISA test method was as follows. THP-1, which is a monocyte cell line distributed from ATCC, was sub-cultured and prepared in the P3 stage, and the cell line was distributed into wells of a well plate and treated with PMA to differentiate into macrophages. The differentiated cells were treated with LPS to induce an inflammatory reaction (to induce the production of TNF-alpha), and were treated with each of the novel peptides at each concentration (1 μM, 5 μM, and 10 μM), and the amounts of TNF-α were measured by ELISA. Relative values for a non-inflammation group and a complete inflammation group were calculated, and estrogen (E2) was set as a positive control and a non-treated cell line not treated with the novel peptides was set as a general control to perform comparative analysis. E2 is known as a steroid that inhibits the production of TNF-α in THP-1.
All data are expressed as mean±standard error of the mean (S.E.M.), and statistical processing was performed by an ANOVA test. A SigmaStat statistical program was used and statistical analysis was performed using a Kruskal-Wallis test and a Mann-Whitney U-test. In addition, comparison between the groups was performed using a Tukey test and a p value less than 0.05 was determined as statistically significant.

[3] = test system: TNF-α; assay: RT-qPCR of TNF-α mRNA expression in LPS-treated THP-1 cells; assay type: cell-based, human; conditions: 1 μM, the lowest treatment concentration; FIG. 1
Description: as §1
The RT-qPCR test method was as follows. THP-1 cells were plated on a 6-well plate at a concentration of 2×10^6 cells/well and treated with 100 ng/mL of PMA for 24 hours to differentiate into macrophages. The media were removed and the differentiated THP-1 cells were washed twice with serum-free media (SFM), and then each novel peptide was treated with 10 ng/mL of LPS at each concentration of 1 μM, 5 μM, and 10 μM for 6 hours. RNA was extracted using RNeasy® Plus Mini Kit (Qiagen), and the extracted RNA was quantified and then cDNA synthesis was performed using a Reverse Transcription System (Promega). […]
All data are expressed as mean±standard error of the mean (S.E.M.), and statistical processing was performed by an ANOVA test. […] In addition, comparison between the groups was performed using a Tukey test and a p value less than 0.05 was determined as statistically significant.

[4] = test system: TGF-β; assay: Western blotting of TGF-β signaling inhibition (pSmad2/3, Smad2/3) in HepG2 cell line; assay type: cell-based, human; conditions: 10 μM peptide
Description: To identify an inhibitory effect of TGF-β, considered as the main cause of fibrosis, of the novel peptides Pep-WH-1 to Pep-WH-12, an experiment for confirming a TGF-β signaling inhibitory action in a HepG2 cell line was carried out as follows.
Reagents and materials used in the present experiment are as follows. Powder-type novel peptides were dissolved in 0.2 μm filtered sterile water, and then stored in the form of aliquots at −70° C., and, when in use, the stored peptides were thawed. A HepG2 cell line (ATCC HB-8065; American Type Culture Collection) was used, and recombinant human TGF-β was dissolved in 4 mM HCl to prepare a 10 μg/mL stock. SB431542 (Sigma) as a positive control was used after being prepared into 10 mM stock.
2×10^6 HepG2 cells (ATCC HB-8065) were seeded in a 60 mm petri dish, and then cultured in a CO2 incubator for 16 hours. Subsequently, the medium was replaced by a serum-free medium (SFM) and further cultured for 24 hours. Thereafter, the medium was replaced with 10 ng/mL of TGF-β1, and the HepG2 cells were treated with each of the novel peptides at each concentration (1 μM and 10 μM) and then cultured for 72 hours. Groups treated with the respective novel peptides were further cultured in a CO2 incubator at 37° C. for 1 hour.
To measure anti-fibrotic activities of the novel peptides, an experiment for measuring a degree of TGF-β signaling inhibition was carried out by western blotting, and a detailed description of the experimental method is as follows.
Cells treated with each peptide were washed twice with PBS, collected in a 1.5 mL EP tube using a cell scraper, and then centrifuged using a centrifugal separator (1,000 rpm, 4° C., 2 minutes) to remove the supernatant, and then 100 μL each was added to RIPA-treated HepG2 cells. The HepG2 cells were incubated on ice for 40 minutes, and then mixed by shaking every 10 minutes (vertex, micro-centrifuge pre-cooled to 4° C.), and each sample was mixed 40 times to 50 times using a 1 mL syringe. Lastly, the resulting mixture was centrifuged at 13,000 rpm for 15 minutes and the obtained supernatant was used.
30 μg of protein was subjected to 8% sodium dodecyl sulfate-polyacrylamide gel electrophoresis (SDS-PAGE) to be transferred to polyvinylidene difluoride (PVDF) membranes (Millipore). The PVDF membranes were blocked with 5% skim milk and incubated with particular primary antibodies. The antibodies used in this experiment are as follows: Smad 2/3 (60, 52 kDa, 5% BSA 1:1000, #3102, Cell signaling), pSmad2/3 (cell signaling #3102), and GAPDH (37 kDa, 5% BSA 1:1000, #2118, Cell signaling). Subsequently, the PVDF membranes were washed with tris-buffered saline containing 0.1% Tween-20 (TBST), and then reacted with an HRP-conjugated anti-rabbit antibody (manufactured by Jackson ImmunoResearch Laboratories, Inc.). Afterwards, ECL detection (Amersham Pharmacia Biotech) was performed thereon, and the acquired images were analyzed using an image analyzer (GE Healthcare, ImageQuant LAS 4000).
To measure TGF-β inhibitory effects, pSmad2/3 and Smad2/3 were used as TGF-β signaling activity markers, and GAPDH was used as a reference group in electrophoresis. The TGF-β signaling activity markers which were expressed at a high concentration as TGF-β was inhibited were used.
All data are expressed as mean±S.E.M., and statistical processing was performed by an ANOVA test. The SigmaStat statistical program was used and statistical analysis was performed using a Kruskal-Wallis test and a Mann-Whitney U-test. In addition, comparison between the groups was performed using a Tukey test and a p value less than 0.05 was determined as statistically significant.

[5] = day 1 after full-thickness excision
[6] = day 3 after full-thickness excision

## Pep-WH-11: novel peptide prepared by the same method as Pep-WH-1; sequence not printed in Table 2 (ALSTRLRG; Pep-WH-11 peptide)
[1]; [5]
  wound size compared to control: smaller wound size
[2]
  inflammation-inducing activity (TNF-α amount) compared to E2 positive control: lower inflammation-inducing activity
[3]
  anti-inflammatory activity (TNF-α mRNA inhibition), comparison among peptides: highest anti-inflammatory activity

## ALTSRVRA (Pep-WH-7 peptide)
[4]
  TGF-β inhibitory activity compared to positive control 10 μM SB431542: higher TGF-β inhibitory activity

## ALTSRVRG (Pep-WH-8 peptide)
[1]; [6]
  wound size compared to control: smaller wound size
[2]
  inflammation-inducing activity (TNF-α amount) compared to E2 positive control: lower inflammation-inducing activity

## ALTSRVRF (Pep-WH-9 peptide)
[1]; [5]
  wound size compared to control: smaller wound size
[2]
  inflammation-inducing activity (TNF-α amount) compared to E2 positive control: lower inflammation-inducing activity

## ALSTRLRG (Pep-WH-5 peptide)
[4]
  TGF-β inhibitory activity compared to positive control 10 μM SB431542: higher TGF-β inhibitory activity

## ALSTRLRA (Pep-WH-4 peptide)
[4]
  TGF-β inhibitory activity compared to positive control 10 μM SB431542: higher TGF-β inhibitory activity

## ALTSKLRF (Pep-WH-12 peptide)
[4]
  TGF-β inhibitory activity compared to positive control 10 μM SB431542: higher TGF-β inhibitory activity
[1]; [6]
  wound size compared to control: smaller wound size
[2]
  inflammation-inducing activity (TNF-α amount) compared to E2 positive control: lower inflammation-inducing activity

## ALSTRLRF (Pep-WH-6 peptide)
[4]
  TGF-β inhibitory activity compared to positive control 10 μM SB431542: higher TGF-β inhibitory activity

## ALSSRLRF (Pep-WH-3 peptide)
[4]
  TGF-β inhibitory activity compared to positive control 10 μM SB431542: higher TGF-β inhibitory activity
